Source: patent publication US11602534B2, “Pyrimidine derivative kinase inhibitors” (HEFEI INSTITUTES OF PHYSICAL SCIENCE, CHINESE ACADEMY OF …, priority 2017, dated 2023)

Experiments:
[1] = system: Tel-FLT3-BaF3; assay: Proliferation of Tel-FLT3-BaF3 cells, CCK8 cell viability assay; format: cell-based; conditions: Mus musculus, 72 hours, stably expressing FLT3 kinase
How it was run: (§1)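 Human kinase-region sequences were PCR-amplified, fused behind N-terminal TEL in MSCV-Puro and stably introduced into mouse BaF3 by retrovirus. IL-3 was then removed to give kinase-dependent lines. Compound effects on these and on parental BaF3 are scored as GI50 (μM) via CCK8 viable-cell quantification.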

[2] = system: TEL-PDGFRα-BaF3; assay: Proliferation of TEL-PDGFRα-BaF3 cells, CCK8 cell viability assay; format: cell-based; conditions: Mus musculus, 72 hours, stably expressing PDGFRα kinase
How it was run: (§2)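 Mouse BaF3 ± TEL-kinase fusion (human cKIT/PDGFRα/PDGFRβ kinase region, MSCV-Puro retrovirus, IL-3 removed → kinase-addicted). Viability by CCK8 (dehydrogenase), GI50 μM.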

[3] = system: P210-BaF3; assay: Proliferation of P210-BaF3 cells, CCK8 cell viability assay; format: cell-based; conditions: Mus musculus, 72 hours, stably expressing BCR-ABL mutant activated kinase
How it was run: as §1

[4] = system: P210/T315I-BaF3; assay: Proliferation of P210/T315I-BaF3 cells, CCK8 cell viability assay; format: cell-based; conditions: Mus musculus, 72 hours, stably expressing BCR-ABL/T315I
How it was run: as §1

[5] = system: TEL-VEGFR2-BaF3; assay: Proliferation of TEL-VEGFR2-BaF3 cells, CCK8 cell viability assay; format: cell-based; conditions: Mus musculus, 72 hours, stably expressing VEGFR2 kinase
How it was run: as §1

[6] = system: TEL-PDGFRβ-BaF3; assay: Proliferation of TEL-PDGFRβ-BaF3 cells, CCK8 cell viability assay; format: cell-based; conditions: Mus musculus, 72 hours, stably expressing PDGFRβ kinase
How it was run: as §2

[7] = system: FLT3-ITD-BaF3; assay: Proliferation of FLT3-ITD-BaF3 cells, CCK8 cell viability assay; format: cell-based; conditions: Mus musculus, 72 hours, stably expressing FLT3/ITD
How it was run: as §1

[8] = system: Tel-RET-BaF3; assay: Proliferation of Tel-RET-BaF3 cells, CCK8 cell viability assay; format: cell-based; conditions: Mus musculus, 72 hours, stably expressing RET kinase
[9] = system: Tel-cKit-BaF3; assay: Proliferation of Tel-cKit-BaF3 cells, CCK8 cell viability assay; format: cell-based, mouse; conditions: Mus musculus; 72 hours, CCK8; stably expressing cKIT kinase
How it was run: as §2

[10] = system: Tel-cKit/T670I-BaF3; assay: Proliferation of Tel-cKit/T670I-BaF3 cells, CCK8 cell viability assay; format: cell-based; conditions: Mus musculus, 72 hours, stably expressing cKIT/T670I
How it was run: as §2

[11] = system: BaF3; assay: Proliferation of BaF3 cells, CCK8 cell viability assay; format: cell-based; conditions: Mus musculus, 72 hours
How it was run: as §2

SMILES | GI50 [1] | GI50 [2] | GI50 [3] | GI50 [4] | GI50 [5] | GI50 [6] | GI50 [7] | GI50 [8] | GI50 [9] | GI50 [10] | GI50 [11]
CC(=O)Nc1cc(Oc2ccc(NC(=O)Cc3cccc([N+](=O)[O-])c3C)cc2)ncn1 [Example 9, N-[4-(6-acetylamino-pyrimidin-4-yloxy)-phenyl]-2-(2-methyl-3-nitro-phenyl)-acetamide] | 12 nM | 4 nM | > 10000 nM | > 10000 nM | 304 nM | 10 nM | 2 nM | > 10000 nM | 584 nM | 5630 nM | > 10000 nM
COc1cc(CC(=O)Nc2ccc(Oc3cc(NC(C)=O)ncn3)cc2)ccc1O [Example 11, N-[4-(6-acetylamino-pyrimidin-4-yloxy)-phenyl]-2-(4-hydroxy-3-methoxy-phenyl)-acetamide] | 1100 nM | 227 nM | > 10000 nM | > 10000 nM | 1520 nM | 271 nM | 346 nM | > 10000 nM | > 10000 nM | > 10000 nM | > 10000 nM
CC(=O)Nc1cc(Oc2ccc(NC(=O)Cc3cccc(Oc4ccccc4)c3)cc2)ncn1 [Example 12, N-[4-(6-acetylamino-pyrimidin-4-yloxy)-phenyl]-2-(3-phenoxy-phenyl)-acetamide] | 649 nM | 20 nM | > 10000 nM | > 10000 nM | 229 nM | 29 nM | 204 nM | 672 nM | 2130 nM | 8640 nM | > 10000 nM
CC(=O)Nc1cc(Oc2ccc(NC(=O)Cc3cccc(Br)c3)cc2)ncn1 [Example 13, N-[4-(6-acetylamino-pyrimidin-4-yloxy)-phenyl]-2-(3-bromo-phenyl)-acetamide] | 616 nM | 4 nM | > 10000 nM | > 10000 nM | 566 nM | 33 nM | 99 nM | > 10000 nM | 6890 nM | > 10000 nM | > 10000 nM
CC(=O)Nc1cc(Oc2ccc(NC(=O)C(O)c3ccc(Br)cc3)cc2)ncn1 (centres unmarked) [Example 14, N-[4-(6-acetylamino-pyrimidin-4-yloxy)-phenyl]-2-(4-bromo-phenyl)-2-hydroxy-acetamide] | 713 nM | 89 nM | > 10000 nM | > 10000 nM | 1240 nM | 341 nM | 284 nM | > 10000 nM | > 10000 nM | > 10000 nM | > 10000 nM
CC(=O)Nc1cc(Oc2ccc(NC(=O)Cc3cccc(F)c3F)cc2)ncn1 [Example 16, N-[4-(6-acetylamino-pyrimidin-4-yloxy)-phenyl]-2-(2,3-difluoro-phenyl)-acetamide] | 818 nM | 12 nM | > 10000 nM | > 10000 nM | 853 nM | 109 nM | 247 nM | 247 nM | > 10000 nM | > 10000 nM | > 10000 nM
CC(=O)Nc1cc(Oc2ccc(NC(=O)Cc3ccccc3Br)cc2)ncn1 [Example 17, N-[4-(6-acetylamino-pyrimidin-4-yloxy)-phenyl]-2-(2-bromo-phenyl)-acetamide] | 744 nM | 13 nM | > 10000 nM | > 10000 nM | 553 nM | 105 nM | 129 nM | 229 nM | > 10000 nM | > 10000 nM | > 10000 nM
COc1ccccc1CC(=O)Nc1ccc(Oc2cc(NC(C)=O)ncn2)cc1 [Example 24, N-[4-(6-acetylamino-pyrimidin-4-yloxy)-phenyl]-2-(2-methoxy-phenyl)-acetamide] | 1760 nM | 77 nM | > 10000 nM | > 10000 nM | 3100 nM | 356 nM | 331 nM | > 10000 nM | > 10000 nM | > 10000 nM | > 10000 nM
CC(=O)Nc1cc(Oc2ccc(NC(=O)Cc3ccccc3F)cc2)ncn1 [Example 25, N-[4-(6-acetylamino-pyrimidin-4-yloxy)-phenyl]-2-(2-fluoro-phenyl)-acetamide] | 1150 nM | 33 nM | > 10000 nM | 1040 nM | 2110 nM | 73 nM | 263 nM | > 10000 nM | > 10000 nM | > 10000 nM | > 10000 nM
CC(=O)Nc1cc(Oc2ccc(NC(=O)Cc3ccccc3Cl)cc2)ncn1 [Example 26, N-[4-(6-acetylamino-pyrimidin-4-yloxy)-phenyl]-2-(2-chloro-phenyl)-acetamide] | 436 nM | 74 nM | > 10000 nM | > 10000 nM | 1240 nM | 180 nM | 77 nM | > 10000 nM | 8680 nM | > 10000 nM | > 10000 nM
Cc1ccc(NC(=O)NC2CCC(Oc3cc(NCCO)ncn3)CC2)cc1C(F)(F)F (centres unmarked) [Example 40, 1-{4-[6-(2-hydroxy-ethylamino)-pyrimidin-4-yloxy]-cyclohexyl}-3-(4-methyl-3-trifluoromethyl-phenyl)-urea] | 580 nM | 21 nM | 5360 nM | 3930 nM | 5090 nM | 330 nM | 168 nM | 4180 nM | 5190 nM | 2400 nM | 5060 nM
COCCNc1cc(OC2CCC(NC(=O)Nc3ccc(C)c(C(F)(F)F)c3)CC2)ncn1 (centres unmarked) [Example 41, 1-{4-[6-(2-methoxy-ethylamino)-pyrimidin-4-yloxy]-cyclohexyl}-3-(4-methyl-3-trifluoromethyl-phenyl)-urea] | 263 nM | 59 nM | 4430 nM | 4690 nM | 2900 nM | 233 nM | 109 nM | 3180 nM | 5120 nM | 707 nM | 7800 nM
Cc1ccc(NC(=O)N[C@H]2CC[C@H](Oc3cc(NCCO)ncn3)CC2)cc1C(F)(F)F [Example 42, 1-((1R,4R)-4-((6-((2-hydroxyethyl)amino)pyrimidin-4-yl)oxy)cyclohexyl)-3-(4-methyl-3-(trifluoromethyl)phenyl)urea] | 198 nM | 94 nM | 5380 nM | 4110 nM | 3770 nM | 96 nM | 274 nM | 3590 nM | 5180 nM | 3910 nM | 5500 nM
